Laboratory results taken from patent US11007191B2, “Pharmaceutical compositions and dosage forms” (IGNYTA, INC., priority 2017, dated 2021).
In brackets after ≈: the same amount, converted by molar mass.

What was measured:
[1] = non-sink dissolution in pH 6.5 PBS with 0.5% SIF, USP Apparatus II; format: physicochemical; conditions: Example 5; 1 mg/mL in PBS pH 6.5 with 0.5% SIF, 37° C., 250 rpm
Procedure: The performance of all four coating weights was evaluated by dissolution in pH 6.5 phosphate buffered saline (PBS) containing 0.5% SIF powder.

[2] = gastric-to-intestinal (GB/IB) two-stage dissolution test; format: physicochemical; conditions: Example 5, GB stage, 75 mL 0.01M HCl, 100 mg nominal dose
Procedure: A two-stage dissolution test was also conducted on all four coating weights to determine if gastric exposure affected performance.
Gastric-to-intestinal (GB-IB) non-sink dissolution test: The formulation having a 50% theoretical coating weight was tested in a GB-IB non-sink dissolution test as described in the table below:

[3] = single-dose food effect study in dogs; format: in vivo, dog; conditions: formulation that did not comprise at least one polymer
Text: Such food effects can cause difficulty during human testing of drugs as the fed or fasted condition of the patient can cause exposure or bioavailability of drugs to vary widely.

[4] = solubility in solvents for fluid bed coating; format: physicochemical
Procedure: The solutions included 80/20 acetone/water, 95/5 acetone/water, 90/10 acetone/water, methyl ethyl ketone, acetone and methanol at 40° C. […] The lab temperature was monitored and ranged from 17° C. to 25° C., fluctuating with time of day during testing.

[5] = amorphous solubility in pH 6.5 PBS containing 0.5% SIF; format: physicochemical; conditions: phosphate buffered saline with 0.5% SIF powder, fassif; pH 6.5 PBS containing 0.5% SIF powder; read-out: approximate amorphous solubility
TrkB = TrkB (Homo sapiens, UniProt Q16620); conditions: background statement; cited from earlier work
TrkC = TrkC (Homo sapiens, UniProt Q16288); conditions: background statement; cited from earlier work
[6] = molecular target: anaplastic lymphoma kinase (ALK) (Homo sapiens, UniProt Q9UM73); conditions: background statement; cited from earlier work
[7] = test system: various forms of cancer having at least one molecular alteration in one or more of ALK, ROS1, TrkA, TrkB and TrkC; conditions: early clinical studies, patients with alteration in ALK; cited from earlier work

Chain of TrkC (Q16288 32-839): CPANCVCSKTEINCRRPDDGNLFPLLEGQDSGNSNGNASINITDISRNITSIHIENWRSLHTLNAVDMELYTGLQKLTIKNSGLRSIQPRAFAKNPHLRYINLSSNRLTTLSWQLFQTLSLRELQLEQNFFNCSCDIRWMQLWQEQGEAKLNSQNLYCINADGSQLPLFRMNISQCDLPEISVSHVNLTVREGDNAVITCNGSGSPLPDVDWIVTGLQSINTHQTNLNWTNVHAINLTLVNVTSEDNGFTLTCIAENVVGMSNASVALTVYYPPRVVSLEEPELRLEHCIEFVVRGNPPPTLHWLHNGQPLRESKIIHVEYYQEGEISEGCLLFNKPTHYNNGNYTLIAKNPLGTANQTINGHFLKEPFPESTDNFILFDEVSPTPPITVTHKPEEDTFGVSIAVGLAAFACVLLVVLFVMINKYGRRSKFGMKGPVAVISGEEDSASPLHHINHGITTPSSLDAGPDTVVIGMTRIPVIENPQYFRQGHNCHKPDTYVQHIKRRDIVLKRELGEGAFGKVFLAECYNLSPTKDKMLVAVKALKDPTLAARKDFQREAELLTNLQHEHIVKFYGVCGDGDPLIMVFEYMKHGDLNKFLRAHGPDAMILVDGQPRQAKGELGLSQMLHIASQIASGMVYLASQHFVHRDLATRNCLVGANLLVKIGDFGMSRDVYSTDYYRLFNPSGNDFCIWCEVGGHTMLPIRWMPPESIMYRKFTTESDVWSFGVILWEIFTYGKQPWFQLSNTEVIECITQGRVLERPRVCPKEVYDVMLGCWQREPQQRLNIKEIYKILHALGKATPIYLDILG
Chain of anaplastic lymphoma kinase (ALK) (Q9UM73 19-1620): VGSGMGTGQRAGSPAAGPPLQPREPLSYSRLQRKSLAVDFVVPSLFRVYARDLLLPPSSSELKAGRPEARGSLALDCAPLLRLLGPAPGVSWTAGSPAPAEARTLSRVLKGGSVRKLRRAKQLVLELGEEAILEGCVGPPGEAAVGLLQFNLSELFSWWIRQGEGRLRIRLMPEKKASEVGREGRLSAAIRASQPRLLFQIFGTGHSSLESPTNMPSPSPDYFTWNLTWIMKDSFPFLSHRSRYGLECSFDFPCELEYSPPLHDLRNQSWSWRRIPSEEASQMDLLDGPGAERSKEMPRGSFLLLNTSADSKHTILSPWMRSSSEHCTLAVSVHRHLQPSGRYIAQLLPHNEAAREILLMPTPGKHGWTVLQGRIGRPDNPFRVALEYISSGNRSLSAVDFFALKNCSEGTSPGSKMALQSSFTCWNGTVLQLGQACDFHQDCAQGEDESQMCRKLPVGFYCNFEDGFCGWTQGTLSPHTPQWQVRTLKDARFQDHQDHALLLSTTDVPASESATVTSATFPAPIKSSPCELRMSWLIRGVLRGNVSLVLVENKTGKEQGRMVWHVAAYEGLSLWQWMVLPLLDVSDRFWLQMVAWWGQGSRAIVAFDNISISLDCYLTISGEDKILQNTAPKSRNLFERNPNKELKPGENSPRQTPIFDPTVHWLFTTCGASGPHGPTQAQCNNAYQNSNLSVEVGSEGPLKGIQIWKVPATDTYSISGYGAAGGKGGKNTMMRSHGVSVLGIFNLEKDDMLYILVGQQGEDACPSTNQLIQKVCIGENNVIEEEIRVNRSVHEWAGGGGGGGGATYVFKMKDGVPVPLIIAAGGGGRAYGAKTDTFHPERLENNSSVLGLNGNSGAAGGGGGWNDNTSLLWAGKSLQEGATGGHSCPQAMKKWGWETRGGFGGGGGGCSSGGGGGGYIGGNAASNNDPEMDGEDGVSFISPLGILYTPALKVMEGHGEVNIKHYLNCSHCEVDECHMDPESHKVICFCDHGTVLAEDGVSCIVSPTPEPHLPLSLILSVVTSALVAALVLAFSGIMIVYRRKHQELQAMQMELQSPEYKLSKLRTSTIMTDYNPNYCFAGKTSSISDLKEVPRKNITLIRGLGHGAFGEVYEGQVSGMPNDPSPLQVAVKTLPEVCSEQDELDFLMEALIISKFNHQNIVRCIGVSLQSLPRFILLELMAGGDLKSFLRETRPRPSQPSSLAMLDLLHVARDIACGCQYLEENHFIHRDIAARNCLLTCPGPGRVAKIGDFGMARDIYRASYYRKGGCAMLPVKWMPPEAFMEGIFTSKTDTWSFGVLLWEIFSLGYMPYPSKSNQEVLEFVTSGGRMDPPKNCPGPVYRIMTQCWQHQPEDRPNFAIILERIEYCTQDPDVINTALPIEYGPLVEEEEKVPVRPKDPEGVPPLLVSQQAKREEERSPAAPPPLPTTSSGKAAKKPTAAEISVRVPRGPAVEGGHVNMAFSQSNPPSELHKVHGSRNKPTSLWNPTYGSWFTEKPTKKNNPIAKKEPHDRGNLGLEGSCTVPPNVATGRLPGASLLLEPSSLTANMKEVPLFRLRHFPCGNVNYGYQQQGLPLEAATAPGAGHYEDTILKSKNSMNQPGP
Chain of TrkB (Q16620 32-822): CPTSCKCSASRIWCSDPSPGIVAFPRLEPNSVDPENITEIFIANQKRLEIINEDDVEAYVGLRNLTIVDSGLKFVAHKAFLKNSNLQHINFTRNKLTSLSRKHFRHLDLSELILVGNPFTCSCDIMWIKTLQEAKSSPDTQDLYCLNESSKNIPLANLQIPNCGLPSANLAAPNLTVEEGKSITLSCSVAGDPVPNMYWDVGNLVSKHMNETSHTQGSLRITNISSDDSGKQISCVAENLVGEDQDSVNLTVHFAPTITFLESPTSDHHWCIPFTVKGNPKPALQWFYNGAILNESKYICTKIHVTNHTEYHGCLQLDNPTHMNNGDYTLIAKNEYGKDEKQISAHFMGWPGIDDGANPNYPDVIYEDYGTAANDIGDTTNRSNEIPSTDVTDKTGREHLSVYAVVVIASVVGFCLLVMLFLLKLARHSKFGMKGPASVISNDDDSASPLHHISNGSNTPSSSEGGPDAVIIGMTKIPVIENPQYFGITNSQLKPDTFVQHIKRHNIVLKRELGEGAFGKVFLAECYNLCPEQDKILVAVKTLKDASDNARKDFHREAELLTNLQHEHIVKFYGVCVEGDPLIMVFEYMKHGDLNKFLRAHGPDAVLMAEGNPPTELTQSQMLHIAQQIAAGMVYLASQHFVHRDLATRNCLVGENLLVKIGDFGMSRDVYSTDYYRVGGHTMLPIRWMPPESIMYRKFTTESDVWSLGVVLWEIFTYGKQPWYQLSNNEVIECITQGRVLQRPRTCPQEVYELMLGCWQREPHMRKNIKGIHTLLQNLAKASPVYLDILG

dose released within about 75 minutes [1] | dose reached in the pH 2.0 media [2] | exposure levels under fed conditions compared to fasting conditions [3] | solubility in acetone/water solutions ([4]; 80/20, 95/5, 90/10 acetone/water, for 24 hours, lab temperature 17-25° C.) | time until completely dissolved in acetone/water solutions ([4]; approximately 170 mg per mL of solvent) | solubility [5] | Structure (SMILES) | inhibition of TrkB (TrkB) | inhibition of TrkC (TrkC) | inhibition of ALK [6] | antitumor effects in patients [7]
about 15% | full dose | – | – | – | – | CN1CCN(c2ccc(C(=O)Nc3n[nH]c4ccc(Cc5cc(F)cc(F)c5)cc34)c(NC3CCOCC3)c2)CC1 [API, N-[5-(3,5-difluorobenzyl)-1H-indazol-3-yl]-4-(4-methyl-piperazin-1-yl)-2-(tetrahydro-2H-pyran-4-ylamino)-benzamide] | – | – | – | –
– | – | approximately 2 fold | greater than mg/mL | ≤ 30 min | ~1000 µg/mL (≈ 1780 µM) | CN1CCN(c2ccc(C(=O)Nc3n[nH]c4ccc(Cc5cc(F)cc(F)c5)cc34)c(NC3CCOCC3)c2)CC1 [N-[5-(3,5-difluorobenzyl)-1H-indazol-3-yl]-4-(4-methyl-piperazin-1-yl)-2-(tetrahydro-2H-pyran-4-ylamino)-benzamide] | potent inhibitor | potent inhibitor | potent inhibitor | antitumor effects
